Data published in patent US20210163453A1, “DERIVATIVES OF PAPAVERINE THAT ARE EFFECTIVE HYPOXIC TUMOR RADIOSENSITIZERS” (Ohio State Innovation Foundation, priority 2018, published 2021).
Entries after “also recorded” stand apart in the source; their conditions may differ.

Experiments:
[1] = system: A549 cells; experiment: In vitro radiation survival (colony formation) of A549 cells; type: cell-based, Human
Experimental: FIGS. 4A-4G show tumor growth before and after radiosensitization with PPV. FIG. 4A-4B show in vitro radiation survival assessment of A549 cell line treated with […] PPV in normoxia (FIG. 4A) and anoxia (FIG. 4B). Normoxic cells were irradiated in triplicates on a cell culture dish, anoxic cells were irradiated in high density suspension after sealing with mineral oil 45 minutes before radiation. Values represent averaged colony counts+−standard deviation. FIG. 4C show quantification of tumor growth delay in orthotopic EO771 tumors gown in C57B16 mice receiving either 5 Gy XRT (magenta) or 2 mg/kg PPV 35 minutes prior to 5 Gy XRT (blue) (n=3-4). Values are mean tumor volumes+−SEM. […] Values are mean tumor volumes+−SEM. FIG. 4E-4F show tumor growth delay. When tumors reached 4-fold volume increase, groups receiving no treatment or PPV only (FIG. 4E); and XRT only or PPV followed by XRT (FIG. 4F), tumor weights were compared. Values are mean tumor weights+−SEM (n=8). P values were calculated with two-tailed two-sample t test. FIG. 4G are related to FIG. 4E-4F tumor growth delay.
A549 cells in suspension were treated with 5 μM PPV for one hour prior to radiation and plating in fresh media for colony formation post radiation. (N=2 experiments performed in triplicate). […]

[2] = system: EO771 or A549 flank tumors; experiment: FD-NIRS tissue oxygenation in tumor-bearing mice; type: in vivo
Experimental: In vivo oxygenation measurements. All animal experiments were performed according to protocols approved by institutional IACUC review, with daily veterinarian observation. 2×10^6 EO771 or 5×10^6 A549 cells were injected s.c. into the flanks of 6-week old female immunocompromised nu/nu mice. Caliper measurements of opposing diameters were used to calculate the tumor volumes. Upon reaching […], the animals were anesthetized by inhalation of 1.5% isoflurane and tumor and thigh muscle oxygenation was measured with NIRS optical probe for 30 minutes. Once the baseline oxygenation was established, the animals were injected with either 2 mg per kg of body weight of papaverine hydrochloride or saline by tail vein. Tissue oxygenation was measured for 120 minutes. Obtained oxygenation values were normalized to time of injection and average of 5 traces per treatment averaged. Error bars represent the standard deviation.
Frequency-domain near-infrared spectroscopy (FD-NIRS) can noninvasively quantify tissue hemoglobin concentration (THb) and oxygenation (SO2) in real time. This technology uses light in the 700-800 nm wavelength because it has reasonably good tissue penetration (nominally 1-2 cm in depth). A FD-NIRS system with a novel side firing probe to measure changes in tumor oxygenation in response to pharmacological intervention was developed and used in this example. This example has generated in vivo data showing that papaverine can increase oxygenation in xenografted tumors in mice.
The FD-NIRS instrument consists of a network analyzer as the radio frequency (RF) source and phase-sensitive detection system, a 1×4 RF switch, a 4×2 optical switch, a multi-channel laser diode controller, four laser diodes (654, 779, 805 and 847 nm) installed in mounts with a bias-T, an avalanche photodiode (APD) module, and a laptop computer loaded with custom software. The surface probe consists of two side-firing source fibers (200/220/240 µm, NA=0.22) and a single side-firing detection fiber (600/660/710 µm, NA=0.22), providing two source-detector separations (SDSs) of 5 and 10 mm, respectively. The fiber tips are polished to a […] and coated with a mirror to create a light path perpendicular to the fiber. All the fiber tips are epoxied into a V-groove on a thin Delrin plate (biocompatible) so that it can be easily attached to the skin surface above a tumor. The two SDSs allow elimination of artifacts due to instrument response and the skin effects, while providing a penetration depth around 10-15 mm in typical tissue.
The FD-NIRS instrument launches intensity-modulated continuous wave lasers into the tissue and collects the amplitude-attenuated and phase-shifted diffuse reflectance from the tissue at the same frequency of the incident light, both through the side-firing probe. […]

[3] = system: NDUFV1 KO NDI1 flank xenografts; experiment: Tumor growth delay of NDUFV1 KO NDI1 flank xenografts with XRT; type: in vivo, mice; settings: 2 mg/kg PPV 35 minutes prior to 8 Gy
Experimental: FIGS. 5A-5E show papaverine radiosensitizes through complex I inhibition. […] Values represent mean viable cells+−SD. […] Values are mean+−SD. […] P value was calculated with two-tailed two-sample t test. […] Curves represent mean tumor volumes+−SEM.
FIGS. 6A-6E show uncropped western blot membrane used for FIG. 5A showing NDUFV1 and PDH E1α levels (FIG. 6A) before probing for NDI1 (FIG. 6B). […] Values represent mean OCR from at least 5 replicates+−SD. […] Curves represent averaged colony counts+−SD. […] Values are mean tumor volumes+−SEM.
Tumor Growth kinetics. 2×10^6 EO771 or 5×10^6 A549 cells were injected s.c. into the flanks of 6-week old female immunocompetent C57/B6 (EO771) or immunocompromised nu/nu (A549) mice. Caliper measurements of opposing diameter were used to calculate the tumor volumes. Upon reaching […], the tumors were visualized by cone beam CT and treatment plans calculated using SARRP software. […] Tumor volumes were measured until the post treatment volume increased 3-fold. Error bars represent standard deviation.

[4] = system: mitochondrial function; settings: cited from earlier work

COc1ccc(Cc2nccc3cc(OC)c(OC)cc23)cc1OC [PPV, papaverine]
colony survival after radiation ([1]; 5 μM papaverine for one hour prior to radiation): did not have any effect on colony survival; also recorded: not an inherent radiosensitizer
surviving fraction of irradiated cells ([1]; 10 μM PPV, normoxia and anoxia): did not change the surviving fraction
tumor oxygenation ([2]; 2 mg/kg by tail vein, within first 30-45 minutes): significantly increased the oxygenation; also recorded: statistically significant
oxygenation of normal thigh muscle ([2]; 2 mg/kg i.v.): no significant change
maximum tumor oxygenation above baseline ([2]; 2 mg/kg i.v., 30 min post injection): 1.35-1.45 × above baseline
oxygenation of normal thigh muscle ([2]; 2 mg/kg i.v., listed as papaverine): no change was detected
radiation growth delay with drug [3]: resistant to PPV dependent increase in radiation growth delay
growth of cells in media containing only galactose [4]: slow the growth of cells
